Data taken from US20180265515A1 (Genentech, Inc., priority 2015, published 2018).

How the values were obtained:
LRRK2 = LRRK2 (Homo sapiens, UniProt Q5S007); experiment: LRRK2 assay (Life Technologies Adapta, SelectScreen Profiling, IC50); assay type: biochemical; settings: for IC50: 75 μM ATP, 10-point curves, read-out: LRRK 2 IC50; for Ratio (LRRK 2 IC50: JAK1 Ki): selectivity ratio LRRK2 IC50 over JAK1 Ki; for selectivity for JAK1 over LRRK2 (in words): 5-sulfanylphenyl compound compared with 5-chlorophenyl matched pair
LRRK2, sequence (Q5S007 970-2527 limits assumed): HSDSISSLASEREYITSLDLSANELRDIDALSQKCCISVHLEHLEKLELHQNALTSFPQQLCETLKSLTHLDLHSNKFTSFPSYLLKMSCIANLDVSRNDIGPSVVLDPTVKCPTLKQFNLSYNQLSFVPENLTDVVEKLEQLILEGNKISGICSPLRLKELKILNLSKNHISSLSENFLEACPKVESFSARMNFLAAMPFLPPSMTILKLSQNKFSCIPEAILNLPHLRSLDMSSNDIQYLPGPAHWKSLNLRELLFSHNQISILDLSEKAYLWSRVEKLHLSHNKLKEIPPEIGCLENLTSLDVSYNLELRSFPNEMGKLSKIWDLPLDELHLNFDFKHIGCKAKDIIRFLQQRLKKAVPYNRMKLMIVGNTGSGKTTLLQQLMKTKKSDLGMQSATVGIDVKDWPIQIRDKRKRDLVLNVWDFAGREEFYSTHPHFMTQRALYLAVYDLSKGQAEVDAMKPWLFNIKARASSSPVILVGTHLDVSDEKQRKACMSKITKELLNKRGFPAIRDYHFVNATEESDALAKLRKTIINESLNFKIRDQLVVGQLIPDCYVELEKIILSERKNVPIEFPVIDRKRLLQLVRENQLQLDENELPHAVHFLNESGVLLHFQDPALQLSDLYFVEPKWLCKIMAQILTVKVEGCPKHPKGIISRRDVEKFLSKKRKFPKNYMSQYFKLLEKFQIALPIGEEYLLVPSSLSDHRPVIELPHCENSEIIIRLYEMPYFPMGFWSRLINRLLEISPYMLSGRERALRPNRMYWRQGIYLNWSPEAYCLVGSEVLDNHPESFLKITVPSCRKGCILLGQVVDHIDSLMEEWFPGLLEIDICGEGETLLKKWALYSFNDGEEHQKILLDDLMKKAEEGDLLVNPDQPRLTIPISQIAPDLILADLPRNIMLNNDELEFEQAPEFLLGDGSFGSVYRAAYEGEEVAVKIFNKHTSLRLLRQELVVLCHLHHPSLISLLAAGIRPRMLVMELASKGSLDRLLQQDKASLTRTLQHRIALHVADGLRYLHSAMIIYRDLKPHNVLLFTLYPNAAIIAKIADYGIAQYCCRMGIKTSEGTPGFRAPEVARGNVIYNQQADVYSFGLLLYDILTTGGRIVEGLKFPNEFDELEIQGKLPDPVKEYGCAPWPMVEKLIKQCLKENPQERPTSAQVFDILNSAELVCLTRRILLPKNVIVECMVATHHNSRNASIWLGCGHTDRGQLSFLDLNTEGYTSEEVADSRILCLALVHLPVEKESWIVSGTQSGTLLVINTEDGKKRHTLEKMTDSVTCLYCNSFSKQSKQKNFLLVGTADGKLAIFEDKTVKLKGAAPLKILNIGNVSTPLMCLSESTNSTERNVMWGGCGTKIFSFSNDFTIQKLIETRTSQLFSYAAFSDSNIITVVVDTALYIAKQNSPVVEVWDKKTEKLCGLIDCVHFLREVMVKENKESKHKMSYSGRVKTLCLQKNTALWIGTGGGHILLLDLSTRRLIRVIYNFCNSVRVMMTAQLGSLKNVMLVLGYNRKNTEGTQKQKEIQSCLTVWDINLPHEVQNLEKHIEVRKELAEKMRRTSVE

[1] = biological target: T1, isolated recombinant JAK1 kinase domain (Homo sapiens, UniProt P23458); experiment: JAK1 enzyme assay (Caliper LabChip, Ki); assay type: biochemical; settings: 25 μM ATP; Morrison tight binding model
T1 construct: The activity of the isolated recombinant JAK1 and JAK2 kinase domain was measured
T1 sequence (P23458 875-1153 limits assumed): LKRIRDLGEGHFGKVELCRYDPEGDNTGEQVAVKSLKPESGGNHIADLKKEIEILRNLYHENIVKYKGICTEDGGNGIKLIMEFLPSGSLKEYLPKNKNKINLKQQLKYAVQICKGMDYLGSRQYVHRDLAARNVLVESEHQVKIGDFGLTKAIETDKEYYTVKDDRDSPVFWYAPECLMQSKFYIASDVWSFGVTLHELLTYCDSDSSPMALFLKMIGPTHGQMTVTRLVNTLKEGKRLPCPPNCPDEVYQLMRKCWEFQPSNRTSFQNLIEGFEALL
In short: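 Caliper LabChip read-out: fraction of FAM-labeled JAK3-derived peptide converted to phosphopeptide by isolated JAK1/JAK2 kinase domain. Reaction 30 min, 22° C; stopped with EDTA, 50 mM final. Ki via Morrison tight-binding model, Ki=Ki,app/(1+[ATP]/Km,app).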

Cn1cc(NC(=O)c2cnn3cccnc23)c(-c2cc(Cl)ccc2OC(F)F)n1 [A, reference compound]
IC50 (LRRK2): 80.9 nM
Ratio (LRRK 2 IC50: JAK1 Ki) (LRRK2): 449
Ki [1]: 0.18 nM

CSc1ccc(OC(F)F)c(-c2nn(CC(=O)N3CCC(CN4CCN(CC(=O)N(C)C)CC4)CC3)cc2NC(=O)c2cnn3cccnc23)c1 [L]
IC50 (LRRK2): 2000 nM
selectivity for JAK1 over LRRK2 (in words) (LRRK2): high degree of JAK1 over LRRK2 selectivity
Ratio (LRRK 2 IC50: JAK1 Ki) (LRRK2): 6453
Ki [1]: 0.31 nM

CSc1ccc(OC(F)F)c(-c2nn(C3CCOCC3)cc2NC(=O)c2cnn3cccnc23)c1 [I]
selectivity for JAK1 over LRRK2 (in words) (LRRK2): greater selectivity for JAK1 over LRRK2 than its 5-chlorophenyl matched pair C
Ki [1]: 0.67 nM

Cn1cc(NC(=O)c2cnn3cccnc23)c(-c2cc(SC(CF)CF)ccc2OC(F)F)n1 [G]
selectivity for JAK1 over LRRK2 (in words) (LRRK2): greater selectivity for JAK1 over LRRK2 than their 5-chlorophenyl matched pair A
Ki [1]: 0.16 nM

O=C(Nc1cn(C2CCOCC2)nc1-c1cc(Cl)ccc1OC(F)F)c1cnn2cccnc12 [C, reference compound]
IC50 (LRRK2): 1030 nM
Ratio (LRRK 2 IC50: JAK1 Ki) (LRRK2): 1493
Ki [1]: 0.69 nM

COC(=O)N1CCN(CC2CCN(C(=O)Cn3cc(NC(=O)c4cnn5cccnc45)c(-c4cc(SC)ccc4OC(F)F)n3)CC2)CC1 [J]
IC50 (LRRK2): 2450 nM
selectivity for JAK1 over LRRK2 (in words) (LRRK2): high degree of JAK1 over LRRK2 selectivity
Ratio (LRRK 2 IC50: JAK1 Ki) (LRRK2): 8167
Ki [1]: 0.3 nM

CC(C)Sc1ccc(OC(F)F)c(-c2nn(C)cc2NC(=O)c2cnn3cccnc23)c1 [E]
IC50 (LRRK2): 2220 nM
selectivity for JAK1 over LRRK2 (in words) (LRRK2): greater selectivity for JAK1 over LRRK2 than their 5-chlorophenyl matched pair A
Ratio (LRRK 2 IC50: JAK1 Ki) (LRRK2): 8880
Ki [1]: 0.25 nM
